Read-outs that look alike come from different tables or passages of the source.
Test system: HIV-1 Env-pseudoviruses (208-strain panel)
Test: microbe, parasite or virus in culture
Format: cell-based
Settings: Human immunodeficiency virus 1, TZM-bl, read-out: IC50
Experimental: Neutralization was measured using single-round-of-infection HIV-1 Env-pseudoviruses and TZM-bl target cells (ARP Cat No. #8129)[44],[45]. Compounds were prepared at 400 μM with 4% DMSO (dimethyl sulfoxide) in PBS (phosphate-buffered saline) and diluted 20 times as the starting concentration for serial dilution in the neutralization assays. […] After incubation at 37 °C for 2 days, infection of target cells was measured by luciferase activity. Neutralization curves were fit by nonlinear regression using a five-parameter hill slope equation[45].

`COc1cnc(-c2csc(C(=O)NCCO)n2)c2[nH]cc(C(=O)C(=O)N3CCC(=C(C#N)c4ccccc4)CC3)c12` [BMS-818251] was tested, and the IC50 (CNE5, clade AE) was 465 nM, the IC50 (CNE7, clade BC) was 0.4 nM and the IC50 (CNE8, clade AE) was 2680 nM. For the same compound, the IC50 (CNE10 (Clade B)) was 0.1 nM, the IC50 (CNE12, clade B) was 2 nM and the IC50 (CNE14, clade B) was 1120 nM. For the same compound, the IC50 (CNE15, clade BC) was 0.1 nM, the IC50 (CNE19, clade BC) was 0.1 nM and the IC50 (CNE20 (Clade BC)) was 6 nM. It also gave an IC50 (CNE21, clade BC) of 0.3 nM, an IC50 (CNE30, clade C) of 0.2 nM and an IC50 (CNE31, clade C) of 1 nM. It also gave an IC50 (CNE40, clade BC) of 1 nM, an IC50 (CNE55, clade AE) of 282 nM and an IC50 (CNE56 (Clade AE)) of 797 nM. The IC50 (CNE57, clade B) was 0.3 nM, the IC50 (CNE58, clade C) was 0.2 nM and the IC50 (CNE59, clade AE) was 506 nM. For the same compound, the IC50 (Ce1176.A3, clade C) was 0.9 nM, the IC50 (DJ263.8 (Clade AG)) was 0.2 nM and the IC50 (DU123.06, clade C) was 0.3 nM. For the same compound, the IC50 (DU151.02, clade C) was 0.2 nM, the IC50 (DU156.12 (Clade C)) was 0.2 nM and the IC50 (DU172.17, clade C) was 0.1 nM. The IC50 (DU422.01, clade C) was 0.7 nM, the IC50 (HO86.8, clade B) was 4 nM and the IC50 (HT593.1, clade B) was 0.1 nM. For the same compound, the IC50 (JRFL.JB, clade B) was 0.1 nM, the IC50 (KER2008.12 (Clade A)) was 15 nM and the IC50 (KER2018.11, clade A) was 0.3 nM. The IC50 (KNH1209.18, clade A) was 0.4 nM, the IC50 (M02138, clade AE) was 28 nM and the IC50 (MB201.A1 (Clade A)) was 9 nM. For the same compound, the IC50 (MB539.2B7, clade A) was 2 nM, the IC50 (MI369.A5, clade A) was 0.3 nM and the IC50 (MN.3, clade B) was 0.6 nM. It also gave an IC50 (MS208.A1, clade A) of 0.3 nM, an IC50 (MW965.26, clade C) of 6 nM and an IC50 (NKU3006.ec1 (Clade D)) of 0.2 nM. The IC50 (P0402.c2.11 (Clade G)) was 0.2 nM, the IC50 (P1981.C5.3, clade G) was 0.5 nM and the IC50 (PVO.04 (Clade B)) was 0.4 nM. It also gave an IC50 (Q23.17, clade A) of 0.5 nM, an IC50 (Q168.a2, clade AD) of 3 nM and an IC50 (Q259.17, clade A) of 7 nM. It also gave an IC50 (Q461.e2, clade AD) of 0.3 nM, an IC50 (Q769.d22, clade A) of 1 nM and an IC50 (Q769.h5, clade A) of 2 nM. The IC50 (Q842.d12, clade A) was 0.4 nM, the IC50 (QH209.14M.A2, clade A) was 60 nM and the IC50 (QH0515.01, clade B) was 31 nM. It also gave an IC50 (QH0692.42, clade B) of 0.7 nM, an IC50 (R1166.c1, clade AE) of over 20000 nM and an IC50 (R2184.c4, clade AE) of 2040 nM. The IC50 (R3265.c6 (Clade AE)) was 122 nM, the IC50 (REJO.67 (Clade B)) was 590 nM and the IC50 (RHPA.7, clade B) was 0.5 nM. For the same compound, the IC50 (RW020.2, clade A) was 0.7 nM, the IC50 (SF162.LS, clade B) was 0.1 nM and the IC50 (SO18.18, clade C) was 0.2 nM. It also gave an IC50 (SS1196.01, clade B) of 579 nM, an IC50 (T33-7, clade AG) of 252 nM and an IC50 (T250-4, clade AG) of 0.4 nM. The IC50 (T251-18, clade AG) was 0.6 nM, the IC50 (T253-11 (Clade AG)) was 0.1 nM and the IC50 (T255-34, clade AG) was 2 nM. The IC50 (T257-31, clade AG) was 1 nM, the IC50 (T266-60, clade AG) was 42 nM and the IC50 (T278-50, clade AG) was 0.1 nM. For the same compound, the IC50 (T280-5 (Clade AG)) was 0.4 nM, the IC50 (TH023.6, clade AE) was over 20000 nM and the IC50 (TH966.8, clade AE) was 923 nM. It also gave an IC50 (TH976.17, clade AE) of 1280 nM, an IC50 (THRO.18, clade B) of 0.2 nM and an IC50 (TRJO.58, clade B) of 0.1 nM. For the same compound, the IC50 (TRO.11, clade B) was 127 nM, the IC50 (TV1.29, clade C) was 1 nM and the IC50 (TZA125.17, clade C) was 1 nM. For the same compound, the IC50 (TZBD.02, clade C) was 0.3 nM, the IC50 (UG021.16, clade D) was 0.2 nM and the IC50 (UG024.2, clade D) was over 20000 nM. It also gave an IC50 (UG037.8, clade A) of 10 nM, an IC50 (WITO.33, clade B) of 0.8 nM and an IC50 (X1254.c3, clade G) of 0.2 nM. The IC50 (X1632.S2.B10, clade G) was 0.3 nM, the IC50 (X2088.c9, clade G) was 0.3 nM and the IC50 (X2131.C1.B5, clade G) was 1 nM. For the same compound, the IC50 (X2278.C2.B6, clade B) was 440 nM, the IC50 (YU2.DG, clade B) was 0.5 nM and the IC50 (ZA012.29, clade C) was 0.5 nM. For the same compound, the IC50 (ZM53.12, clade C) was 0.4 nM, the IC50 (ZM55.28a, clade C) was 0.3 nM and the IC50 (ZM106.9 (Clade C)) was 2 nM. It also gave an IC50 (ZM109.4, clade C) of 0.1 nM, an IC50 (ZM135.10a, clade C) of 153 nM and an IC50 (ZM176.66, clade C) of 1 nM. It also gave an IC50 (ZM197.7, clade C) of 0.2 nM, an IC50 (ZM214.15, clade C) of 0.2 nM and an IC50 (ZM215.8, clade C) of 0.1 nM. The IC50 (ZM233.6, clade C) was 0.1 nM, the IC50 (ZM249.1, clade C) was 0.4 nM and the IC50 ([…], clade C) was 0.1 nM. The IC50 ([…], clade G) was 0.6 nM.

— publication PMC6318274, “Lattice engineering enables definition of molecular features allowing for potent small-molecule inhibition of HIV-1 entry” (Nature Communications, 2019)
